{"source": "patent US20190054103A1", "about": "“METHOD OF TREATMENT OF TP53 WILD-TYPE TUMORS WITH 2',2'-DIFLUORO-5-AZA-2'-DEOXYCYTIDINE OR PRODRUGS THEREOF” (priority 2016, published 2019)", "key": {"[1]": {"tested_on": "NCI 60 Cell Line Panel", "assay": "NCI 60 Cell Line Panel, summary by TP53 status (2×2 contingency tables)", "format": "cell-based, human", "source_text": "The NCI-60 Cell Line Panel was assembled by the National Cancer Institute as an in vitro anticancer drug screen. The panel comprises human cancer cell lines representing nine different tissues of origin: breast, colon, central nervous system, renal, lung, melanoma, ovarian, prostate, and hematogenous. […] See, e.g., Leroy et al. “Analysis of TP53 Mutation Status in Human Cancer Cell Lines: a Reassesment” Hum Mutat 2014 35(6): 756-765."}, "[2]": {"tested_on": "TP53 WT colon cancer cell line Ls174T", "assay": "CellTiter-Glo growth inhibition, Ls174T", "format": "cell-based", "conditions": "Homo sapiens, 72-hour exposure, FIG. 1", "protocol": "Two examples of additional comparisons are provided below for colon cancer cell lines (TP53 WT colon cancer cell line Ls174T and TP53 WT colon cancer cell line LoVo).\nIn these assays, two 96 well plates of each cell line were seeded with 5,000 cells per well in a total volume of […] per well and left incubating overnight. The following day, the cells were exposed to different concentrations of NUC013. At the end of a 72-hour exposure period, the plates were removed for CellTiter-Glo® assay. Luminescence was recorded on a Synergy 4.0."}, "[3]": {"tested_on": "HL-60 (leukemia, TP null)", "conditions": "HL-60 nude mice"}, "[4]": {"tested_on": "HeLa cells", "assay": "Nucleotide concentrations in HeLa cell extracts by HPLC (RNR inhibition)", "format": "cell-based", "conditions": "50 μM, 16 h incubation", "source_text": "The more common approach is to synthesize a nucleoside diphosphate and then determine whether it inhibits RNR or p53R2. […] Nucleic Acids Research. […] The other approach is to expose cells in tissue culture to the drug and then attempt to determine whether deoxynucleotide synthesis is inhibited when compared to control cells. Measurement of deoxynucleotides may be done by radioimmunoassay or by HPLC. The disadvantage of a radioimmunoassay is that it can only measure a single deoxynucleotide triphosphate (dNTP) at a time and typically requires a tritiated nucleotide, but it is the preferred method for measuring dCTP [Piall E M, Aherne G W, Marks V. The quantitative determination of 2′-deoxycytidine-5′ triphosphate in cell extracts by radioimmunoassay. Anal Biochem. 1986; 154(1):276-281 incorporated herein by reference in its entirety]. On the other hand, HPLC can measure multiple nucleotides without requiring radiolabeling, but has been noted to quantitate poorly dC nucleotides, possibly as an artifact of an influx of dCTP from the medium [Bianchi V, Pontis E, Reichard P. Changes of deoxyribonucleoside triphosphate pools induced by hydroxyurea and their relation to DNA synthesis. J Biol Chem. 1986; 261(34): 16037-16042 incorporated herein by reference in its entirety]. This approach was used to determine RNR inhibition by NUC013.\nBriefly, HeLa cells ([…]) were grown in the presence or absence of drug, in this case gemcitabine or NUC013. At the end of a 16 h incubation, the medium was aspirated, cells monolayers washed twice with PBS, and used for nucleotide extraction. The nucleotides were extracted from cell monolayers by the addition of ice-cold 80% acetonitrile (ACN) for 1 h. The extracts were centrifuged to remove cellular debris and loaded on a SAX column (100 mg, Supelco) pre-conditioned with methanol, water and ACN. Once the sample was completely effused, the cartridge was washed with 3 ml 80% ACN and 3 ml water and eluted with 1M KCl. The eluent was filtered through a 0.45 μm filter membrane (Roth) and analyzed by HPLC. Peak identification of the different nucleoside mono-, di-, and triphosphates, was made from their characteristic UV absorption spectra and retention times compared with those of a mixture of standards run immediately before cell extracts. The area of individual peaks was measured using ChemStation software (Agilent)."}, "[5]": {"conditions": "TP53 (WT) cell lines of NCI 60 cell panel"}, "[6]": {"conditions": "TP53 (null/mutant) cell lines of NCI 60 cell panel"}}, "note": "Like-named read-outs stand apart in the source and are kept apart here."}
{"smiles": "Nc1ncn([C@@H]2O[C@H](CO)[C@@H](O)C2(F)F)c(=O)n1", "note": "[NUC013, 4-amino-1-((2R,4R,5R)-3,3-difluoro-4-hydroxy-5-(hydroxymethyl)tetrahydrofuran-2-yl)-1,3,5-triazin-2(1H)-one]", "values": [{"measurement": "inhibition at 10 µM", "setting": "[1]; Homo sapiens, 60 cell, 10 μM, read-out: Inhibition of growth of hematogenous tumor cell lines", "value": "> 50", "unit": "%"}, {"measurement": "Number of cell lines with >50% growth inhibition at 10 μM", "setting": "[1]; [5]", "value": 11}, {"measurement": "Number of cell lines with ≤50% growth inhibition at 10 μM", "setting": "[1]; [5]", "value": 4}, {"measurement": "Number of cell lines with >50% growth inhibition at 10 μM", "setting": "[1]; [6]", "value": 13}, {"measurement": "Number of cell lines with ≤50% growth inhibition at 10 μM", "setting": "[1]; [6]", "value": 27}, {"measurement": "GI50", "setting": "[2]", "value": 1300, "unit": "nM"}, {"measurement": "animals removed from the study for death or moribund", "setting": "[3]; 5.8 mg/kg", "value": "no animals removed from the study for death or moribund"}, {"measurement": "tumor weights vs saline control", "setting": "[3]; 5.8 mg/kg", "value": "not significantly different"}, {"measurement": "hazard ratio (HR) vs saline control (death, ulcerated tumor or tumor >4 g)", "setting": "[3]; 5.8 mg/kg (equimolar to decitabine 5 mg/kg)", "value": 0.46}, {"measurement": "hazard ratio (HR) vs saline control (death, ulcerated tumor or tumor >4 g)", "setting": "[3]; 20 mg/kg", "value": 0.26}, {"measurement": "tumor volume vs saline control", "setting": "[3]; 20 mg/kg, study days 18 through 28, FIG. 3A", "value": "significant decreases"}, {"measurement": "ADP", "setting": "[4]", "value": "13,845"}, {"measurement": "ATP", "setting": "[4]", "value": "21,335"}, {"measurement": "CTP", "setting": "[4]", "value": "1,279"}, {"measurement": "GTP", "setting": "[4]", "value": "2,006"}, {"measurement": "UTP", "setting": "[4]", "value": "4,070"}, {"measurement": "dATP, peak area, AU", "setting": "[4]", "value": 10.2, "unit": "AU"}, {"measurement": "dGDP, peak area, AU", "setting": "[4]", "value": 5.6, "unit": "AU"}, {"measurement": "dTDP, peak area, AU", "setting": "[4]", "value": 18.65, "unit": "AU"}, {"measurement": "dUTP, peak area, AU", "setting": "[4]", "value": 8.8, "unit": "AU"}]}
